Four molecules from patent publication US5221664A, “Composition and treatment with biologically active peptides and toxic cations” (Magainin Pharmaaceuticals Inc., priority 1991, dated 1993) can be followed below.

Values joined by “and” are separate entries in the source; they are usually repeats but may differ in a detail not shown here. Equal entries are not always repeated. Where two headings read alike, the source gives them in different places. Ends that are not written are not given here.

Test [1] has as its system P. aeruginosa strain 107 which was gentamicin resistant. In words: Minimum Inhibitory Concentration (MIC) in TSB, test wells. The settings on record: for MIC: agent alone, gentamicin resistant P. aeruginosa strain 107; for MIC of the peptide: P. aeruginosa strain 107. The class given is cell-based. The protocol: Approximately 1-5×10^5 CFUs of P. aeruginosa strain 107 which was gentamicin resistant, dispersed in 100 μl of TSB were added to each test well. […] The following combinations of Magainin II, with or without silver nitrate, were tested for Minimum Inhibitory Concentration (MIC) of Magainin II: […]

The subject of test [2] is clinical isolate of a methicillin resistant S. aureus (MSRA). The class given is cell-based. The note with it: agent alone. The procedure: Approximately 1-5×10^5 CFUs of a clinical isolate of a methicillin resistant S. aureus (MSRA), dispersed in 100 μl of TSB were added to each test well. […] The MIC of each peptide alone, and of silver nitrate alone was determined. The MIC of each peptide when 5 μg/ml and/or 10 μg/ml of silver nitrate was added was determined as well.

The test system of test [3] is P. aeruginosa strain 27853. The protocol: Approximately 1-5×10^5 colony forming units (CFUs) of P. aeruginosa strain 27853, dispersed in 100 μl of Trypticase soy broth (TSB), were added to each test well. […] B13-33 peptide is of the following structure:
The following peptide combinations were tested for Minimal Inhibitory Concentration (MIC) of the B13-33 peptide:
The following combinations were tested for the MIC of silver nitrate:
Approximately 1-5×10^5 CFUs of P. aeruginosa strain 27853 dispersed in 100 μl of TSB were added to each test well. […]

[4] abbreviates: agent alone, P. aeruginosa strain 27853.
The mark [5] stands for this setting: plus 3 μg/ml silver nitrate, P. aeruginosa strain 27853.

For the molecule `O=[N+]([O-])[O-].[Ag+]` [Silver nitrate, silver nitrate, reference compound], the MIC in test [1] is 8 µg/mL; in test [2], 16 µg/mL; in test [3] (setting [4]), 4 to 8 µg/mL and 8 µg/mL; in test [3] (agent alone, P. aeruginosa strain 27853, listed as silver nitrate), 2 to 8 µg/mL. Besides, the “MIC of silver nitrate” value in test [3] (plus 1.6 μg/ml B13-33 peptide, P. aeruginosa strain 27853) is 2 to 8 µg/mL; in test [3] (plus 5 μg/ml B13-33 peptide, P. aeruginosa strain 27853), less than 0.25 µg/mL; in test [3] (plus 5 μg/ml B13-33 peptide, P. aeruginosa strain 27853, listed as silver nitrate) it was “less than 0.25 μg/ml”.
With “KWKLFKKIEKVGQRVRDAVISAGPAVATVAQATALAK [Cecropin A-D]”, in test [3] (setting [4]), the MIC is 16 µg/mL. Further, the “MIC of the peptide” value in test [3] (setting [5]) was less than 0.25 µg/mL.
On to GIGKFLKKAKKFGKAFVKIMKK [B13-33 peptide], for which the MIC in test [3] (strain 27853) was 4 to 16 µg/mL.
As for “GIGKFLHSAKKFGKAFVGEIMNS-NH2 [Magainin II]”, the MIC in test [1] is 256 µg/mL. The “MIC of the peptide” value was 32 µg/mL in test [1] (plus 1 μg/ml silver nitrate); 16 µg/mL in test [1] (plus 2 μg/ml silver nitrate); 16 µg/mL in test [1] (plus 3 μg/ml silver nitrate); 4 µg/mL in test [1] (plus 4 μg/ml silver nitrate); less than 0.03 µg/mL in test [1] (plus 5 μg/ml silver nitrate); 32 µg/mL in test [3] (plus 1 μg/ml silver nitrate, P. aeruginosa strain 27853). Further, the “MIC of the peptide” value is 16 µg/mL in test [3] (plus 2 μg/ml silver nitrate, P. aeruginosa strain 27853); 8 µg/mL in test [3] (setting [5]); less than 0.03 µg/mL in test [3] (plus 4 μg/ml silver nitrate, P. aeruginosa strain 27853).
